Target: P. falciparum apicoplast DNA polymerase (Pf-apPOL) (Plasmodium falciparum, UniProt Q8ILY1)
Experiment: Fluorescence-based high-throughput DNA polymerase assay (molecular beacon), primary screen and dose-response;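 on % inhibition Apol 40': compound concentration given in µM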
Type: biochemical
Details: for DNA Pol: 90 min, 10 µM
Procedure: The HT assay employs a molecular beacon, a stem-loop DNA template with a Cy3 dye and the Black Hole Quencher on the 3′ and 5′ ends of the DNA, respectively. Pf-apPOL concentration is based on a calculated absorptivity of ε280 = 56750 M^−1 cm^−1. Reactions were carried out at 25 °C, using Corning 3575 […] (well-volume, 20 µL). Assays testing for compound inhibition composed of reaction buffer (pH 7.9 in 50 mM potassium acetate, 20 mM Tris-acetate and 10 mM magnesium acetate), Pf-apPOL (20 nM), DNA substrate (20 nM), dNTPs (6 µM), and compound (10 µM in DMSO). The DNA and nucleotide substrates (dNTPs) were at concentrations of 20 nM and 6 µM, respectively, in the assay. Pf-apPOL was incubated in the reaction buffer with dNTPs and the compound of interest (10 µM, in the assay) at 25 °C for 10 min. The DNA substrate was then added and the reaction was allowed to proceed for 90 min at 25 °C.
Each assay plate contained 16 negative controls (no Pf-apPOL, DMSO present) and 16 positive controls (Pf-apPOL present, no DMSO). The fluorescence of each well was determined using a BioTek Synergy Neo fluorescence plate reader using excitation and emission wavelengths of 555 and 570 nm, respectively.
In the above, Min is the average of fluorescence emission of the negative controls (substrate only), Max the average fluorescence emission from the positive controls (enzyme + substrate), and Test the emission from the assays in the presence of compounds (enzyme + compound + substrates). […] […] The IC50 of each compound was determined using Equation (2): (2) IC50= Vmax/(1+ (I/IC50)^n)
In the above, n measures cooperativity, with n > 1 indicating synergistic binding of more than a single molecule of the compound.
To identify apPOL inhibitors we utilised our previously developed high-throughput DNA polymerase assay. The HT assay is based on a molecular beacon DNA template that forms a stem-loop with a Cy3 dye and the Black Hole Quencher on the 3′ and 5′ ends of the DNA, respectively. DNA polymerase activity extends an annealed primer through the stem region, displacing the fluorophore from the quencher, thereby increasing its fluorescence (Figure 1(A)). The assay accurately recapitulates the kinetic behaviour of apPOL, as measured through more conventional low-throughput gel-based assays. The Z′ factor for the assay described here was 0.9 across all plates (data not shown).
Figure 1. High-throughput screening. (A) The fluorescent-based DNA polymerase assay used to screen the compound libraries. The DNA template strand is a hairpin loop with a primer annealed to the loop. The 3’ end of the primer is 11 bases away from the 6 bp duplex. Strand displacement activity of the DNA polymerase separates the Cy3 dye from the Black hole quencher leading to an increase in fluorescent signal. (B) The high-throughput assay workflow. The DNA polymerase is incubated with […] compound for 10 min prior to addition of the hairpin substrate. The reaction is quenched at 3 different time points and the fluorescent signal is measured and % inhibition is determined using the provided equation.

[1] = 'DNA Pol' of the 186 hits list (screen value)
[2] = primary screen value, "DNA Pol"

Chain of P. falciparum apicoplast DNA polymerase (Pf-apPOL) (Q8ILY1 entry or part of it): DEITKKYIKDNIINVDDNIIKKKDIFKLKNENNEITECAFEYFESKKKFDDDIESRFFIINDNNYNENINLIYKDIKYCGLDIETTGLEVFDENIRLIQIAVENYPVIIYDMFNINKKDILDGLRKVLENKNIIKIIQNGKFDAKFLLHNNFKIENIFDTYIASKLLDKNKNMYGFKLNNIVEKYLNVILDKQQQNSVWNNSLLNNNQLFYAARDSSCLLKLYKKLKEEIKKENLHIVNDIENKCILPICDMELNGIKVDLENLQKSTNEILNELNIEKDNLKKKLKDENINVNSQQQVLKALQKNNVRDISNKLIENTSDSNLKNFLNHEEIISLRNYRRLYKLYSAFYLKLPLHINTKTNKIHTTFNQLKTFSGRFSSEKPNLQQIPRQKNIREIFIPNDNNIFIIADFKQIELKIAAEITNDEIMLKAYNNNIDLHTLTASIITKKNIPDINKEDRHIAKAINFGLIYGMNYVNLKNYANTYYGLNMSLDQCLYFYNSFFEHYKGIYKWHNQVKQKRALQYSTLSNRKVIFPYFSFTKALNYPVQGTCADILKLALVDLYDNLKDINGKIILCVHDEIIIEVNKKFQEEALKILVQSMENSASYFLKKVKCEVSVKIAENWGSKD

C=CCOc1c(Br)cc(Br)cc1/C=C1\SC(=N)NC1=O [KU0051640]
DNA Pol [1]: 26 | % inhibition Apo pol 10' (DRC-1, conc 2.5): 4.163% | % inhibition Apo pol 10' (DRC-1, conc 5): -1.099% | % inhibition Apo pol 10' (DRC-1, conc 10): 11.4088% | % inhibition Apo pol 10' (DRC-1, conc 20): 46.0852% | % inhibition Apo pol 10' (DRC-1, conc 40): 88.1194% | % inhibition Apo pol 10' (DRC-1, conc 80): 94.2659% | % inhibition Apol 90' (DRC-1, conc 2.5): 2.139% | % inhibition Apol 90' (DRC-1, conc 5): -4.076% | % inhibition Apol 90' (DRC-1, conc 10): 7.3276% | % inhibition Apol 90' (DRC-1, conc 20): 38.2187% | % inhibition Apol 90' (DRC-1, conc 40): 86.7215% | % inhibition Apol 90' (DRC-1, conc 80): 95.0722% | % inhibition apPOL 180' (DRC-1, conc 2.5): -0.2194% | % inhibition apPOL 180' (DRC-1, conc 5): -7.333% | % inhibition apPOL 180' (DRC-1, conc 10): 0.9345% | % inhibition apPOL 180' (DRC-1, conc 20): 26.8822% | % inhibition apPOL 180' (DRC-1, conc 40): 86.6627% | % inhibition apPOL 180' (DRC-1, conc 80): 95.6515% | % inhibition Apo pol 5' (DRC-2, conc 2.5): 11% | % inhibition Apo pol 5' (DRC-2, conc 5): 7% | % inhibition Apo pol 5' (DRC-2, conc 10): 20% | % inhibition Apo pol 5' (DRC-2, conc 20): 43% | % inhibition Apo pol 5' (DRC-2, conc 40): 54% | % inhibition Apo pol 5' (DRC-2, conc 80): 54% | % inhibition Apo pol 5' (DRC-2, concentration 5): 7% | % inhibition Apo pol 5' (DRC-2, concentration 40): 54% | % inhibition Apo pol 5' (DRC-2, concentration 80): 54% | % inhibition Apol 40' (DRC-2, conc 2.5): 12% | % inhibition Apol 40' (DRC-2, conc 5): 7% | % inhibition Apol 40' (DRC-2, conc 10): 24% | % inhibition Apol 40' (DRC-2, conc 20): 54% | % inhibition Apol 40' (DRC-2, conc 40): 72% | % inhibition Apol 40' (DRC-2, conc 80): 75% | % inhibition Apol 40' (DRC-2, concentration 2.5): 12% | % inhibition Apol 40' (DRC-2, concentration 5): 7% | % inhibition Apol 40' (DRC-2, concentration 20): 54% | % inhibition ApPOL 90' (DRC-2, conc 2.5): 12% | % inhibition ApPOL 90' (DRC-2, conc 5): 6.55% | % inhibition ApPOL 90' (DRC-2, conc 10): 23% | % inhibition ApPOL 90' (DRC-2, conc 20): 56% | % inhibition ApPOL 90' (DRC-2, conc 40): 76% | % inhibition ApPOL 90' (DRC-2, conc 80): 79% | % inhibition ApPOL 90' (DRC-2, concentration 2.5): 12% | % inhibition ApPOL 90' (DRC-2, concentration 40): 76% | % inhibition apPOL 180' (DRC-2, conc 2.5): 9% | % inhibition apPOL 180' (DRC-2, conc 5): 4% | % inhibition apPOL 180' (DRC-2, conc 10): 17% | % inhibition apPOL 180' (DRC-2, conc 20): 49% | % inhibition apPOL 180' (DRC-2, conc 40): 76% | % inhibition apPOL 180' (DRC-2, conc 80): 81% | % inhibition apPOL 180' (DRC-2, concentration 40): 76% | DNA Pol [2]: 26

O=c1nc(/C=C/c2ccc(Br)cc2)oc2ccccc12 [KU0052629]
DNA Pol [1]: 39 | % inhibition Apo pol 10' (DRC-1, conc 2.5): -0.8795% | % inhibition Apo pol 10' (DRC-1, conc 5): 1.877% | % inhibition Apo pol 10' (DRC-1, conc 10): 5.765% | % inhibition Apo pol 10' (DRC-1, conc 20): 17.2321% | % inhibition Apo pol 10' (DRC-1, conc 40): 88.0772% | % inhibition Apo pol 10' (DRC-1, conc 80): 96.3156% | % inhibition Apol 90' (DRC-1, conc 2.5): -3.77% | % inhibition Apol 90' (DRC-1, conc 5): -1.711% | % inhibition Apol 90' (DRC-1, conc 10): 2.797% | % inhibition Apol 90' (DRC-1, conc 20): 11.2319% | % inhibition Apol 90' (DRC-1, conc 40): 85.0713% | % inhibition Apol 90' (DRC-1, conc 80): 92.172% | % inhibition apPOL 180' (DRC-1, conc 2.5): -7.96% | % inhibition apPOL 180' (DRC-1, conc 5): -5.094% | % inhibition apPOL 180' (DRC-1, conc 10): -1.853% | % inhibition apPOL 180' (DRC-1, conc 20): 4.7876% | % inhibition apPOL 180' (DRC-1, conc 40): 80.0065% | % inhibition apPOL 180' (DRC-1, conc 80): 94.1472% | % inhibition Apo pol 5' (DRC-2, conc 2.5): 6% | % inhibition Apo pol 5' (DRC-2, conc 5): -1.24% | % inhibition Apo pol 5' (DRC-2, conc 10): 6% | % inhibition Apo pol 5' (DRC-2, conc 20): 35% | % inhibition Apo pol 5' (DRC-2, conc 40): 60% | % inhibition Apo pol 5' (DRC-2, conc 80): 61% | % inhibition Apo pol 5' (DRC-2, concentration 2.5): 6% | % inhibition Apo pol 5' (DRC-2, concentration 10): 6% | % inhibition Apol 40' (DRC-2, conc 2.5): 8% | % inhibition Apol 40' (DRC-2, conc 5): -2.13% | % inhibition Apol 40' (DRC-2, conc 10): 5.6% | % inhibition Apol 40' (DRC-2, conc 20): 48% | % inhibition Apol 40' (DRC-2, conc 40): 77% | % inhibition Apol 40' (DRC-2, conc 80): 75% | % inhibition Apol 40' (DRC-2, concentration 2.5): 8% | % inhibition ApPOL 90' (DRC-2, conc 2.5): 8% | % inhibition ApPOL 90' (DRC-2, conc 5): -2% | % inhibition ApPOL 90' (DRC-2, conc 10): 5% | % inhibition ApPOL 90' (DRC-2, conc 20): 45% | % inhibition ApPOL 90' (DRC-2, conc 40): 79% | % inhibition ApPOL 90' (DRC-2, conc 80): 79% | % inhibition ApPOL 90' (DRC-2, concentration 2.5): 8% | % inhibition ApPOL 90' (DRC-2, concentration 40): 79% | % inhibition ApPOL 90' (DRC-2, concentration 80): 79% | % inhibition apPOL 180' (DRC-2, conc 2.5): 6% | % inhibition apPOL 180' (DRC-2, conc 5): -4% | % inhibition apPOL 180' (DRC-2, conc 10): 2.72% | % inhibition apPOL 180' (DRC-2, conc 20): 37% | % inhibition apPOL 180' (DRC-2, conc 40): 79% | % inhibition apPOL 180' (DRC-2, conc 80): 79% | % inhibition apPOL 180' (DRC-2, concentration 2.5): 6% | % inhibition apPOL 180' (DRC-2, concentration 40): 79% | % inhibition apPOL 180' (DRC-2, concentration 80): 79% | DNA Pol [2]: 39

— publication PMC9090415, “Discovery of small molecule inhibitors of Plasmodium falciparum apicoplast DNA polymerase” (Journal of Enzyme Inhibition and Medicinal Chemistry, 2022)
